Source: the supplement of paper PMC10307832

Legend:
Venetoclax = compound: CC1(C)CCC(CN2CCN(c3ccc(C(=O)NS(=O)(=O)c4ccc(NCC5CCOCC5)c([N+](=O)[O-])c4)c(Oc4cnc5[nH]ccc5c4)c3)CC2)=C(c2ccc(Cl)cc2)C1 [Venetoclax]; assay: relative viability (nuclei count vs DMSO), 5 days (fraction); higher = more cells survive
Method in brief: (§1)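 For viability, nuclei in each treated well were divided by nuclei in vehicle wells and the median across plates was taken. Lung cancer cell lines in 1536-well plates were pinned with five library-drug doses (not always all listed) spaced by √10, cultured 5 days without medium change, and imaged at 4× after Hoechst staining, with plates passing only at control CV below 25% and at least one doubling.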

Selumetinib = compound: Cn1cnc2c(F)c(Nc3ccc(Br)cc3Cl)c(C(=O)NOCCO)cc21 [Selumetinib]; assay: as above
Method in brief: as §1

Cell Line	relative viability (Venetoclax; 0.01 µM)	relative viability (Venetoclax; 0.03162 µM)	relative viability (Venetoclax; 0.1 µM)	relative viability (Venetoclax; 0.3162 µM)	relative viability (Venetoclax; 1 µM)	relative viability (Selumetinib; 0.02 µM)	relative viability (Selumetinib; 0.06325 µM)	relative viability (Selumetinib; 0.2 µM)	relative viability (Selumetinib; 0.6325 µM)
NCI-H358	1.04	0.916	0.898	0.975	0.863	0.618	0.456	0.373	0.31
NCI-H441	0.952	1.08	0.97	0.974	0.865	1.18	0.922	0.827	0.649
NCI-H460	0.98	0.965	0.941	0.989	0.923	0.963	0.801	0.823	0.545
NCI-H520	0.923	0.994	0.828	0.971	1	1.12	0.981	1.08	1.04
NCI-H522	0.955	1.02	0.976	0.988	0.982	0.896	0.957	1.02	0.927
NCI-H596	1.01	0.972	0.941	0.925	0.888	0.9	0.881	0.889	0.729
NCI-H647	1.06	0.991	0.798	1	0.884	0.936	0.797	0.809	0.793
NCI-H650	0.934	1.05	0.876	1.1	0.855	1.1	1.09	1.39	1.26
NCI-H661	0.964	1.07	0.949	0.995	0.966	1.01	0.954	0.979	1
NCI-H727	1.17	0.993	0.848	0.953	0.827	0.5	0.418	0.352	0.385
NCI-H838	0.965	1.05	0.948	0.957	0.906	0.853	0.863	0.854	0.743
NCI-H1299	1.02	1.03	1.01	1.01	0.949	1.04	1.03	1.02	0.889
NCI-H1355	0.957	0.983	1.01	1.03	0.904	0.949	0.85	0.749	0.743
NCI-H1395	1.01	0.99	0.769	1.11	0.922	0.984	0.85	0.892	0.845
NCI-H1437	0.971	1.04	0.989	0.957	0.949	0.911	0.817	0.703	0.53
NCI-H1563	0.999	0.963	0.971	1.04	1.07	0.957	0.868	0.981	0.91
NCI-H1623	0.951	1.02	0.96	1.01	1.02	0.85	0.83	0.79	0.714
NCI-H1648	0.661	0.966	0.94	0.822	0.791	0.729	0.961	0.904	0.797
NCI-H1650	0.903	1.02	0.815	1.05	0.768	0.857	0.796	0.837	0.795
NCI-H1651	1.05	1.02	0.971	0.926	0.904	1.03	0.913	0.93	0.963
NCI-H1666	0.915	1.02	0.966	0.933	1.01	0.917	0.94	0.878	0.875
NCI-H1703	0.869	0.953	0.917	0.99	0.788	0.974	0.816	0.9	0.909
NCI-H1734	0.906	1.03	0.868	0.957	0.912	1	0.936	0.928	0.919
NCI-H1755	0.996	1.04	0.977	0.995	0.967	0.952	0.963	0.916	0.922
